Test results from patent US20100099774A1 (priority 2007, published 2010).

What was measured:
Format in all cases: cell-based
Colleotrichum truncatum = conditions: 63 ppm, 2% aqueous biomalt solution, 405 nm, 7 days after inoculation, Abbot's formula
Pyricularia oryzae = conditions: 63 ppm, 2% aqueous biomalt solution, 405 nm, 7 days after inoculation, Abbot's formula
Septoria tritici = conditions: 63 ppm
Colleotrichum lagenarium = conditions: 63 ppm, 2% aqueous biomalt solution, 405 nm, 7 days after inoculation, Abbot's formula
Phytophthora infestans = conditions: 63 ppm, pea juice-based aqueous nutrient medium, 405 nm, 7 days after inoculation, Abbot's formula
Rhynchosporium secalis = conditions: 63 ppm
Monographella nivalis = conditions: 63 ppm
[1] = tested on: Pseudocercosporella herpotrichoides R-Type; conditions: 63 ppm
Leptosphaeria nodorum = conditions: 63 ppm
Pyrenophora teres = conditions: 63 ppm
Septoria glycines = conditions: 63 ppm
[2] = tested on: Pseudocercosporella herpotrichoides W-Type; conditions: 63 ppm
Corynespora cassiicola = conditions: 63 ppm

## CCN/C(=N\Nc1c(Cl)cc(C(F)(F)F)cc1Cl)C1(C)CC1(Cl)Cl (stereo not drawn) [compound I-2, N-Ethyl-2,2-dichloro-1-methylcyclopropane-carboxamide-2-(2,6-dichloro-α,α,α-trifluoro-p-tolyl)hydrazone]
Colleotrichum truncatum
  Efficacy: 100%
Pyricularia oryzae
  Efficacy: 91%
Septoria tritici
  Efficacy: 100%
Colleotrichum lagenarium
  Efficacy: 89%
Phytophthora infestans
  Efficacy: 100%
Rhynchosporium secalis
  Efficacy: 100%
Monographella nivalis
  Efficacy: 100%
[1]
  Efficacy: 100%
Leptosphaeria nodorum
  Efficacy: 100%
Pyrenophora teres
  Efficacy: 96%
Septoria glycines
  Efficacy: 100%
[2]
  Efficacy: 100%
Corynespora cassiicola
  Efficacy: 100%
